Values quoted from earlier work in patent US6355670B1, “Use of estrogen antagonists and estrogen agonists in inhibiting pathological conditions” (Pfizer, Inc., priority 1996, dated 2002).

How the values were obtained:
estrogen receptor = target: T1, estrogen receptor (Homo sapiens, UniProt P03372); conditions: higher, relative to tamoxifen
T1 sequence (P03372 1-595): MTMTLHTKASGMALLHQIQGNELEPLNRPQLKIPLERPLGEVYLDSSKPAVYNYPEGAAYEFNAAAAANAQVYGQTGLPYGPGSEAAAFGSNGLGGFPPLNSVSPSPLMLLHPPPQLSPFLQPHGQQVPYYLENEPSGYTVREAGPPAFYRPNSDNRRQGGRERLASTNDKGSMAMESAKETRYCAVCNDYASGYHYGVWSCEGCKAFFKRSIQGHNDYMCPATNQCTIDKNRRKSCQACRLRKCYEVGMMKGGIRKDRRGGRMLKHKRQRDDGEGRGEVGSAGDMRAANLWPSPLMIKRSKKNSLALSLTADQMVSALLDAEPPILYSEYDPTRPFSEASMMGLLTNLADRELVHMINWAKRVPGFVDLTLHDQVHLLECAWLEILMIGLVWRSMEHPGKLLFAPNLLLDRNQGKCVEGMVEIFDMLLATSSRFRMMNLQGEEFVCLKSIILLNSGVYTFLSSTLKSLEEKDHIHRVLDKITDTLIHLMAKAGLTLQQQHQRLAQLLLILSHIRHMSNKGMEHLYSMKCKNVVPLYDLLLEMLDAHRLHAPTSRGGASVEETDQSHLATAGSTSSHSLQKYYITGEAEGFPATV

[1] = in vivo or in vitro
[2] = test system: intact or ovariectomized female rats
[3] = test system: streptozotocin diabetic rats; conditions: implanted

## CC/C(=C(/c1ccc(OCCN(C)C)cc1)c1cccc(O)c1)c1ccccc1 [droloxifene, 3-hydroxytamoxifen]
Estrogen receptor
  binding affinity to the estrogen receptor compared to tamoxifen: 10-60 fold
[1]
  carcinogenic or mutagenic effects: devoid of in vivo or in vitro carcinogenic or nutagenic effects

## C[C@]12CC[C@H]3[C@@H](CCC4=CC(=O)CC[C@@]43C)[C@@H]1CC[C@@H]2O [testosterone]
[2]
  insulin resistance: marked insulin resistance
[3]
  ability of residual insulin to maintain glycemic control: antagonized the ability of residual insulin to maintain glycemic control

## CC/C(=C(\c1ccccc1)c1ccc(OCCN(C)C)cc1)c1ccccc1 [tamoxifen]
rats
  liver tumors: causes liver tumors in rats
